The results in this text go back to patent publication US20190262323A1, “COMPOSITIONS AND METHODS FOR TREATING NEURODEGENERATIVE DISORDERS” (GEORGETOWN UNIVERSITY, priority 2016, published 2019).

For the experiment, the system named is APP mice. Nature of the experiment: Morris water maze. The class given is in vivo. Conditions: 2.5 mg/kg for three weeks; by day three of training; average of three trials. The method, then:
APP mice treated with either DMSO or 2.5 mg/kg LCB-03-0110 for 3 weeks were trained three times a day to find a submerged platform using visuospatial cues inside the apparatus. […] The mouse was allowed up to 60 seconds to find the platform, after which it would be removed from the apparatus after 5 seconds on the platform. If the animal was unable to find the platform, it was placed on the platform for 20 seconds. […] Data are shown as an average of three trials.

As to `Oc1cccc(Nc2ccnc3cc(-c4cccc(CN5CCOCC5)c4)sc23)c1` [LCB 03-0110, 3-(2-(3-(morpholinomethyl)phenyl)thieno[3,2-b]pyridine-7-ylamino)phenol], the “reduction in the average time to find a submerged platform” value was found to be 30%.
